US10407409B2, “6-(5-hydroxy-1H-pyrazol-1-yl)nicotinamide inhibitors of PHD” (Takeda Pharmaceutical Company Limited, priority 2013, dated 2019)

Experiments:
[1] = tested on: HIF1a protein in H9c2 rat cardiomyocytes; experiment: Cell-based HIF-alpha stabilization assay (inhibition of PHD in cells); conditions: 24 hrs compound incubation, HIF1a protein by ELISA; for EC50: Rattus norvegicus, H9c2, 24 h, read-out: Inhibition of PHD in cells (pEC50) (converted)
Method in brief: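 HIF1a stabilization was measured by ELISA on lysates of H9c2 rat cardiomyocytes after 24 h exposure to 11 serial compound concentrations, expressed relative to the desferrioxamine maximum. Curve fits gave EC50. EC50pos denotes the concentration producing half the desferrioxamine maximal response.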

[2] = target: PHD2 enzyme (residues 181-417) (Homo sapiens (Human), UniProt Q9GZT9); experiment: Inhibition of PHD enzyme (LC/MS peptide hydroxylation assay); type: biochemical; conditions: PHD2 (residues 181-417) 5 nM, 60 min pre-incubation; -log(IC50), IC50 molar
Chain of PHD2 enzyme (residues 181-417) (Q9GZT9 181-417): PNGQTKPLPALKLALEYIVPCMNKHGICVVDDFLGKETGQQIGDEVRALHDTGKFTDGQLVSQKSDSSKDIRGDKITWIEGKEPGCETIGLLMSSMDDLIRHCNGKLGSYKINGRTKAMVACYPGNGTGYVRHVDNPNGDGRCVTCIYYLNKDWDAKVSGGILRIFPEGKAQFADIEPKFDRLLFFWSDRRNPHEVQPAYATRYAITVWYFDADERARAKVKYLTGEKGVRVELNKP
Method in brief: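 Hydroxylated peptide quantified by LC/MS after 60 min turnover of 1 uM biotinylated peptide with 2 uM 2-oxoglutarate and 1 mM ascorbate, stopped by excess tight-binding inhibitor. Beforehand, 5 nM enzyme and compound were preincubated 60 min at RT, pH 7.3 HEPES/KCl/TCEP/FeCl2/BSA buffer. Values as pIC50 (−log molar IC50).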

Structure (SMILES) | EC50 [1] | PHD Inhibition (pIC50) [2] | Inhibition of PHD in cells (pEC50) [1]
N#Cc1ccc(-c2cnn(-c3ccc(C(=O)NCCCn4cccn4)cn3)c2O)cc1 [Example 117, N-(3-(1H-pyrazol-1-yl)propyl)-6-(4-(4-cyanophenyl)-5-hydroxy-1H-pyrazol-1-yl)nicotinamide] | 646 nM | 7.44 | –
N#Cc1ccc(-c2cnn(-c3ccc(C(=O)NCCCOCC4CC4)cn3)c2O)cc1 [Example 118, 6-(4-(4-cyanophenyl)-5-hydroxy-1H-pyrazol-1-yl)-N-(3-(cyclopropylmethoxy)propyl)nicotinamide] | 316 nM | 7.36 | –
CO[C@H]1CC[C@@H](NC(=O)c2ccc(-n3ncc(-c4ccc(C#N)cc4C)c3O)nc2)CC1 [Example 119, 6-(4-(4-cyano-2-methylphenyl)-5-hydroxy-1H-pyrazol-1-yl)-N-((1 s,4s)-4-methoxycyclohexyl)nicotinamide] | 126 nM | 7.11 | –
Cc1cc(C#N)ccc1-c1cnn(-c2ccc(C(=O)N[C@H]3CCOC3)cn2)c1O [Example 120, (S)-6-(4-(4-cyano-2-methylphenyl)-5-hydroxy-1H-pyrazol-1-yl)-N-(tetrahydrofuran-3-yl)nicotinamide] | 102 nM | 7.2 | –
COCCCNC(=O)c1ccc(-n2ncc(-c3ccc(C#N)cc3C)c2O)nc1 [Example 121, 6-(4-(4-cyano-2-methylphenyl)-5-hydroxy-1H-pyrazol-1-yl)-N-(3-methoxypropyl)nicotinamide] | 191 nM | 7.17 | –
CC[C@H](C)NC(=O)c1ccc(-n2ncc(-c3ccc(C#N)cc3C)c2O)nc1 [Example 122, (S)—N-(sec-butyl)-6-(4-(4-cyano-2-methylphenyl)-5-hydroxy-1H-pyrazol-1-yl)nicotinamide] | 95.5 nM | 7.06 | –
N#Cc1ccc(-c2cnn(-c3ccc(C(=O)N4CCOCC4)cn3)c2O)cc1 [Example 123, 4-(5-hydroxy-1-(5-(morpholine-4-carbonyl)pyridin-2-yl)-1H-pyrazol-4-yl)benzonitrile] | 4790 nM | 7.16 | –
Cc1cc(C#N)ccc1-c1cnn(-c2ccc(C(=O)NCCCO)cn2)c1O [Example 125, 6-(4-(4-cyano-2-methylphenyl)-5-hydroxy-1H-pyrazol-1-yl)-N-(3-hydroxypropyl)nicotinamide] | 372 nM | 7.19 | –
CCOCCNC(=O)c1ccc(-n2ncc(-c3ccc(C#N)cc3C)c2O)nc1 [Example 126, 6-(4-(4-cyano-2-methylphenyl)-5-hydroxy-1H-pyrazol-1-yl)-N-(2-ethoxyethyl)nicotinamide] | 380 nM | 7.24 | –
Cc1cc(C#N)ccc1-c1cnn(-c2ccc(C(=O)NC3CC3)cn2)c1O [Example 127, 6-(4-(4-cyano-2-methylphenyl)-5-hydroxy-1H-pyrazol-1-yl)-N-cyclopropylnicotinamide] | 93.3 nM | 7.18 | –
Cc1cc(C#N)ccc1-c1cnn(-c2ccc(C(=O)NC(C)C)cn2)c1O [Example 128, 6-(4-(4-cyano-2-methylphenyl)-5-hydroxy-1H-pyrazol-1-yl)-N-isopropylnicotinamide] | 145 nM | 7.04 | –
COCC1(NC(=O)c2ccc(-n3ncc(-c4ccc(C#N)cc4C)c3O)nc2)CCCC1 [Example 129, 6-(4-(4-cyano-2-methylphenyl)-5-hydroxy-1H-pyrazol-1-yl)-N-(1-(methoxymethyl)cyclopentyl)nicotinamide] | 186 nM | 7.14 | –
Cc1cc(C#N)ccc1-c1cnn(-c2ccc(C(=O)NCCCCO)cn2)c1O [Example 130, 6-(4-(4-cyano-2-methylphenyl)-5-hydroxy-1H-pyrazol-1-yl)-N-(4-hydroxybutyl)nicotinamide] | 417 nM | 7.27 | –
Cc1cc(C#N)ccc1-c1cnn(-c2ccc(C(=O)N[C@H]3CC[C@@H](O)CC3)cn2)c1O [Example 131, 6-(4-(4-cyano-2-methylphenyl)-5-hydroxy-1H-pyrazol-1-yl)-N-((1 s,4s)-4-hydroxycyclohexyl)nicotinamide] | 257 nM | 7.21 | –
Cc1cc(C#N)ccc1-c1cnn(-c2ccc(C(=O)N[C@H]3CC[C@H](O)CC3)cn2)c1O [Example 132, 6-(4-(4-cyano-2-methylphenyl)-5-hydroxy-1H-pyrazol-1-yl)-N-((1r,4r)-4-hydroxycyclohexyl)nicotinamide] | – | 7.26 | 6.59
Cc1cc(C#N)ccc1-c1cnn(-c2ccc(C(=O)NCC3CCCO3)cn2)c1O (stereo not shown) [Example 133, 6-(4-(4-cyano-2-methylphenyl)-5-hydroxy-1H-pyrazol-1-yl)-N-((tetrahydrofuran-2-yl)methyl)nicotinamide] | 195 nM | 7.17 | –
Cc1cc(C#N)ccc1-c1cnn(-c2ccc(C(=O)NC3CCC3)cn2)c1O [Example 134, 6-(4-(4-cyano-2-methylphenyl)-5-hydroxy-1H-pyrazol-1-yl)-N-cyclobutylnicotinamide] | 339 nM | 7.21 | –
COCC1(CNC(=O)c2ccc(-n3ncc(-c4ccc(C#N)cc4C)c3O)nc2)CC1 [Example 135, 6-(4-(4-cyano-2-methylphenyl)-5-hydroxy-1H-pyrazol-1-yl)-N-((1-(methoxymethyl)cyclopropyl)methyl)nicotinamide] | 148 nM | 7.15 | –
COCC(C)NC(=O)c1ccc(-n2ncc(-c3ccc(C#N)cc3C)c2O)nc1 (stereo not shown) [Example 136, 6-(4-(4-cyano-2-methylphenyl)-5-hydroxy-1H-pyrazol-1-yl)-N-(1-methoxypropan-2-yl)nicotinamide] | 112 nM | 7.13 | –
Cc1cc(C#N)ccc1-c1cnn(-c2ccc(C(=O)N[C@@H]3CCOC3)cn2)c1O [Example 137, (R)-6-(4-(4-cyano-2-methylphenyl)-5-hydroxy-1H-pyrazol-1-yl)-N-(tetrahydrofuran-3-yl)nicotinamide] | 245 nM | 7.21 | –
Cc1cc(C#N)ccc1-c1cnn(-c2ccc(C(=O)N[C@H](C)C3CC3)cn2)c1O [Example 138A, (R)-6-(4-(4-cyano-2-methylphenyl)-5-hydroxy-1H-pyrazol-1-yl)-N-(1-cyclopropylethyl)nicotinamide] | 302 nM | 6.95 | –
Cc1cc(C#N)ccc1-c1cnn(-c2ccc(C(=O)N[C@H]3CC[C@H](O)CC3)cn2)c1O [Example 139, 6-(4-(4-cyano-2-methylphenyl)-5-hydroxy-1H-pyrazol-1-yl)-N-((1r,4r)-4-hydroxycyclohexyl)nicotinamide] | – | 7.36 | 7.09
Cc1cc(C#N)ccc1-c1cnn(-c2ccc(C(=O)NC3CCN(C4CC4)CC3)cn2)c1O [Example 140, 6-(4-(4-cyano-2-methylphenyl)-5-hydroxy-1H-pyrazol-1-yl)-N-(1-cyclopropylpiperidin-4-yl)nicotinamide] | 120 nM | 8.1 | –
Cc1cc(C#N)ccc1-c1cnn(-c2ccc(C(=O)NCCCn3cccn3)cn2)c1O [Example 141] | 407 nM | 8.3 | –
Cc1cc(C#N)ccc1-c1cnn(-c2ccc(C(=O)NCC3CCCCO3)cn2)c1O (stereo not shown) [Example 142, 6-(4-(4-cyano-2-methylphenyl)-5-hydroxy-1H-pyrazol-1-yl)-N-((tetrahydro-2H-pyran-2-yl)methyl)nicotinamide] | 85.1 nM | 8.3 | –
COCC1(CNC(=O)c2ccc(-n3ncc(-c4ccc(C#N)cc4C)c3O)nc2)CCCC1 [Example 143, 6-(4-(4-cyano-2-methylphenyl)-5-hydroxy-1H-pyrazol-1-yl)-N-((1-(methoxymethyl)cyclopentyl)methyl)nicotinamide] | 891 nM | 7.9 | –
C[C@H]1CC[C@H](NC(=O)c2ccc(-n3ncc(-c4ccc(C#N)cc4)c3O)nc2)CC1 [Example 144, 6-(4-(4-cyanophenyl)-5-hydroxy-1H-pyrazol-1-yl)-N-((1r,4r)-4-methylcyclohexyl)nicotinamide] | 1700 nM | 8.1 | –
COC(C)CCNC(=O)c1ccc(-n2ncc(-c3ccc(C#N)cc3)c2O)nc1 (stereo not shown) [Example 145, 6-(4-(4-cyanophenyl)-5-hydroxy-1H-pyrazol-1-yl)-N-(3-methoxybutyl)nicotinamide] | 501 nM | 8.3 | –
COCC(C)CNC(=O)c1ccc(-n2ncc(-c3ccc(C#N)cc3)c2O)nc1 (stereo not shown) [Example 146, 6-(4-(4-cyanophenyl)-5-hydroxy-1H-pyrazol-1-yl)-N-(3-methoxy-2-methylpropyl)nicotinamide] | 692 nM | 8.3 | –
